According to BindingDB's records for doi:10.1021/jm2006222:

Biological target: 3-phosphoinositide-dependent protein kinase 1 (Homo sapiens) (UniProt O15530)
Test: Inhibition of recombinant PDK1

- IC50: > 10 µM
Structure (SMILES): CCN1CCN(c2ccc(Nc3cc(N(C)C(=O)Nc4c(Cl)c(OC)cc(OC)c4Cl)ncn3)cc2)CC1
